Test in all cases: DTP human tumour cell line panel, 48 h
Test [1] concerns K-562 leukemia.
For test [2], the system named is NCI-H522 lung.
Test [3] deals with OVCAR-4 ovarian.
The test system of test [4] is DU-145 prostate.
In test [5] the test system is CAKI-1 renal.
The subject of test [6] is LOX IMVI melanoma.
For test [7], the system named is MDA-N.
The subject of test [8] is HL-60(TB) leukemia.
Test [9] concerns KM12 colon.
Test [10] deals with SR leukemia.

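Where inhibition never reached the appropriate level, the endpoint shown equals the highest concentration tested. Otherwise, values were interpolated linearly from a five-concentration, 48-hour dose response in 96-well plates. TGI denotes the concentration required for complete inhibition of growth.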

For `OCC(O)C(O)C(O)C(O)/C=N/Nc1nc(O)c(/C=C2\C=Nc3ccccc32)[nH]1` (stereo not given), the TGI in [1], in test [2], in test [3], in [4], in test [5] and in test [6] was above 100 µM each time. The TGI in [7], in test [8] and in test [9] was above 100 µM throughout.
On to `COC(=O)[C@H](CCSC)NC(=O)c1ccc(CNC(=O)/C(C)=C/c2ccccc2)cc1`, for which the TGI (commonly the concentration at which net growth stops) in test [1] is above 100 µM; in test [2], 32.5 µM; in [3] it was above 100 µM; in test [4], above 100 µM; in test [5], above 100 µM; in test [6] it was above 100 µM. Further, the TGI in test [7], in [10] and in test [9] was above 100 µM throughout.
Regarding `O=C(O)CC(O)(C(=O)O)C(O)C(=O)O` (stereo not given), the TGI in [1], in [2], in test [3], in [4], in test [5] and in [6] was above 1000 µM throughout. In addition, the TGI in [7], in [8] and in test [9] was above 1000 µM in each case.
For the molecule `COc1cccc(-c2cc(=O)c3cc(Cl)cnc3[nH]2)c1`, the TGI is above 100 µM in test [1]; 3.51 µM in test [2]; 76.3 µM in [3]; above 36.4 µM in [4]; 71.8 µM in test [5]; above 100 µM in test [6]. For the same molecule, the figures for the TGI in [7], in test [10] and in test [9] were 0.0239 µM, 20.4 µM and 44.2 µM, respectively.
On to `CC1CC[C@@]2(OC1)OC1C[C@H]3[C@@H]4CCC5CC(O)CC[C@]5(C)[C@H]4C/C(=N\N(C)C)[C@]3(C)C1[C@@H]2C` (stereo not given in full), for which the TGI in test [1] is above 100 µM; in [3] it was above 100 µM; in [4], 60.1 µM; in [6], above 100 µM; in test [7], 41.4 µM; in test [8], 70.5 µM. Besides, the figures for the TGI in test [10] and in test [9] were 60.6 µM and 85.2 µM, respectively.
As for `CC1CN=C(c2ccc(COc3ccc(C4=NCC(C)N4)cc3)cc2)N1` (stereo not given), the TGI in test [1], in test [2], in test [3], in [4], in test [5] and in [6] was above 100 µM in each case. The TGI in [7], in test [8] and in test [9] was above 100 µM in each case.
Consider `CN(C)CCNc1nc2c(no[n+]2[O-])c2ccccc12`, for which the TGI was 87.7 µM in test [1]; 65.4 µM in test [2]; 61.1 µM in [3]; above 100 µM in [4]; 60.6 µM in test [5]; 35.1 µM in [6]. Besides, the TGI in [7] came out at 91.4 µM; in test [10], 74.8 µM; in test [9], 58.9 µM.
For the molecule `COc1ccc(N2C(=O)C3CC4=CC(=O)C[C@H]4[C@H]32)cc1` (stereo not given in full), the TGI in test [1] is above 100 µM; in test [3], above 100 µM; in test [4] it was above 100 µM; in [5] it was 87.6 µM; in [6] it was above 100 µM; in [7] it was 82.1 µM. The TGI in [10] and in test [9] was above 100 µM each time.
Take `O=P1(c2ccccc2)C2=CCC=CC2C(c2ccccc2)N1Cc1ccccc1` (stereo not given): the TGI in [1] was 35.5 µM; in test [2], 24.6 µM; in [4], 31.4 µM; in test [5], 27 µM; in test [7], 38.2 µM; in test [8], 39.9 µM. The TGI in [10] is 53.5 µM; in test [9], 28.3 µM.
`CCOP(=O)(OCC)C(C)(C)OC(=O)NC#N`: the TGI in test [1], in test [3], in test [4], in [5], in test [6] and in [7] was above 100 µM throughout. The TGI in test [8], in [10] and in [9] was above 100 µM in each case.
Consider `CC1=CC(=O)/C(=C/n2c(=S)[nH]c3ccccc32)C(=O)O1`, for which the TGI in test [1], in test [2], in [3], in test [4], in test [5] and in test [6] was above 100 µM in each case. Moreover, the TGI in test [7], in test [8] and in [9] was above 100 µM in each case.
Take `CC(=O)N(CN1C(=O)CCC1C(=O)O)c1ccccc1Cl` (stereo not given): the TGI in [1], in test [2], in [3], in test [4], in test [5] and in test [6] was above 100 µM in each case. The TGI in test [7], in test [8] and in test [9] was above 100 µM in each case.
As for `Cc1nc2c(=O)[nH]c3ccc(Cl)cc3c2o1`, the TGI in test [1], in test [2], in test [3], in test [5], in [6] and in [7] was above 100 µM in each case. The TGI in [10] and in test [9] was above 100 µM throughout.
Take `C=CC1(c2ccc(OC)cc2)OCCCO1`: the TGI in test [1], in test [2], in test [3], in test [4], in test [6] and in test [7] was above 100 µM in each case. For the same molecule, the TGI in [8], in test [10] and in test [9] was above 100 µM each time.
As to `OC(CN1CCCCC1)c1ccc(/C=C/c2ccc(Cl)cc2)cc1` (stereo not given), the total growth inhibition concentration (TGI) in test [1] is above 100 µM; in test [2] it was 72.7 µM; in [3] it was above 100 µM; in [4], above 100 µM; in test [7] it was above 100 µM; in [8], above 100 µM. In addition, the figures for the TGI in [10] and in test [9] were above 100 µM and 40.3 µM, respectively.
